How the values were obtained:
[1] = compound: T1, C[C@H]1CNCCN1c1nccc(-c2noc3c2CCC[C@@]32CCCc3sc(N)c(C#N)c32)n1 [BI-2493]; settings: 5 days
Description: (§1)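 PRISM pooled barcoded cancer cell line viability screen (Broad Institute) with BI-2493 at 8 doses in threefold dilutions from 0.00457 to 10 µmol/L, 5-day treatment; curves fitted per cell line. IC50 is undefined (placeholder) for resistant lines. AUC is capped at 1, and sensitivity is reported as 1 − AUC.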

[2] = compound: T1, BI-2493; experiment: 1 - AUC of viability dose-response curve (sensitivity) (fraction); higher = more sensitive; settings: 5 days
Description: as §1

Row | Test System | IC50 of cell viability [1] | 1 - AUC of viability dose-response curve [2]
1 | ISHIKAWAHERAKLIO02ER_ENDOMETRIUM | 6.65 µM | 0.174
2 | ISTMES1_PLEURA | 8.84 µM | 0.0873
3 | J82_URINARY_TRACT | 5.23 µM | 0.122
4 | JAR_PLACENTA | 3.54 µM | 0.242
5 | JEKO1_HAEMATOPOIETIC_AND_LYMPHOID_TISSUE | 5.06 µM | 0.0886
6 | JHH4_LIVER | 6.96 µM | 0.071
7 | JHH5_LIVER | 0.387 µM | 0.297
8 | JHH6_LIVER | 4.43 µM | 0.0848
9 | JHH7_LIVER | 1.67 µM | 0.27
10 | JHOC5_OVARY | 5.69 µM | 0.139
11 | JHOM1_OVARY | 4.83 µM | 0.119
12 | JHOS2_OVARY | 9.64 µM | 0.0182
13 | JHUEM7_ENDOMETRIUM | 5.02 µM | 0.101
14 | JIMT1_BREAST | 5.98 µM | 0.115
15 | JL1_PLEURA | > 10 µM | 0.13
16 | JMSU1_URINARY_TRACT | > 10 µM | 0.00212

Row | Test System | IC50 of cell viability [1] | 1 - AUC of viability dose-response curve [2]
17 | JOPACA1_PANCREAS | 4.96 µM | 0.107
18 | JR_SOFT_TISSUE | 1.44 µM | 0.275
19 | JURLMK1_HAEMATOPOIETIC_AND_LYMPHOID_TISSUE | 3.42 µM | 0.169
20 | JVM3_HAEMATOPOIETIC_AND_LYMPHOID_TISSUE | 9.45 µM | 0.105
21 | K029AX_SKIN | 7.21 µM | 0.058
22 | K562_HAEMATOPOIETIC_AND_LYMPHOID_TISSUE | 7.18 µM | 0.0609
23 | KALS1_CENTRAL_NERVOUS_SYSTEM | 9.22 µM | 0.0195
24 | KARPAS620_HAEMATOPOIETIC_AND_LYMPHOID_TISSUE | 0.866 µM | 0.326
25 | KARPAS1718_HAEMATOPOIETIC_AND_LYMPHOID_TISSUE | 4.87 µM | 0.0894
26 | KATOIII_STOMACH | 4.3 µM | 0.183
27 | KCL22_HAEMATOPOIETIC_AND_LYMPHOID_TISSUE | 6.3 µM | 0.193
28 | KD_SOFT_TISSUE | 3.6 µM | 0.114
29 | KE37_HAEMATOPOIETIC_AND_LYMPHOID_TISSUE | 6.5 µM | 0.0832
30 | KE39_STOMACH | 1.55 µM | 0.351
31 | KE97_STOMACH | > 10 µM | 0.00627
